Where only a bound is given, the exact number is not on record here.

One assay deals with IL-12 induced STAT4 phosphorlyation mediated by TYK2/JAK2. The assay is described as follows: IL-12 Induced pSTAT4 in Human PBMC. The following applies: 1.7 ng/mL IL-12 for 30 minutes. The class given is cell-based. In short, it runs like this:
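Thawed human PBMC pre-incubated with compound 1 hr at 37° C (0.1% DMSO final), then stimulated 30 minutes with IL-12 at 1.7 ng/mL final. pSTAT4 and total STAT4 measured in cell lysates with MSD reagents.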
As usually defined, the IC50 is the concentration needed to halve the response being measured. A higher IC50 goes with lower potency. In the case of `CNc1cc(Nc2cccn([C@H]3CCC[C@@](C)(O)C3)c2=O)nc2c(C(=O)N[C@@H]3C[C@@H]3F)cnn12` [Compound I-129], the IC50 is below 0.1 µM.
The compound `CNc1cc(-c2cn([C@H]3C[C@@H](O)C3)c3ncccc23)nc2c(C(=O)N[C@H]3CC[C@@H]3OC)cnn12` [Compound I-606] returned a half-maximal inhibitory concentration (IC50) below 0.1 µM.
Consider `CNc1cc(Nc2cccn([C@@H]3CCOC[C@@H]3OC)c2=O)nc2c(C(=O)NC3CCC3(F)F)cnn12` (stereo partly shown) [Compound I-336], for which the IC50 is below 0.1 µM.
In the case of `CNc1ccc(-c2cc(NC)n3ncc(C(=O)N[C@H]4CC[C@H]4F)c3n2)n2ccnc12` [Compound I-784], the IC50 is below 0.1 µM.
Same read-out and setting: the same measure for `CNc1cc(Nc2cccn([C@H]3C[C@@H]3F)c2=O)nc2c(C(=O)N[C@@H]3CCC3(F)F)cnn12` [Compound I-279]: below 0.1 µM.
`CNc1cc(-c2cn([C@@H]3COC[C@H]3OC)c3ncccc23)nc2c(C(=O)N[C@H]3CC[C@@H]3OC)cnn12` [Compound I-637]: the IC50 is below 0.1 µM.
The compound `CNc1cc(Nc2cccn([C@H]3CCC[C@@H](C#N)C3)c2=O)nc2c(C(=O)N[C@H]3CCC3(F)F)cnn12` [Compound I-331] returned an IC50 below 0.1 µM.
In turn, `CNc1cc(-c2cn([C@H]3CCC4(C3)OCCO4)c3ncccc23)nc2c(C(=O)NC3CC[C@@H]3OC)cnn12` (stereo partly shown) [Compound I-671] returned an IC50 below 0.1 µM.
Still for that read-out and setting: the same measure for `CNc1cc(-c2cnc3n([C@H]4COC[C@@H]4OC)cccc2-3)nc2c(C(=O)N[C@@H]3CC[C@H]3OC)cnn12` [Compound I-881]: below 0.1 µM; for `CNc1cc(-c2cn([C@@H]3CC3(F)F)c3ncccc23)nc2c(C(=O)NC3CC[C@H]3O)cnn12` (stereo partly shown) [Compound I-548]: below 0.1 µM; for `CNc1cc(-c2cn([C@H]3[C@@H]4COC[C@@H]43)c3ncccc23)nc2c(C(=O)N[C@H]3CC[C@@H]3OC)cnn12` [Compound I-793, 5-(1-((1R,5S,6r)-3-oxabicyclo[3.1.0]hexan-6-yl)-1H-pyrrolo[2,3-b]pyridin-3-yl)-N-((1S,2S)-2-methoxycyclobutyl)-7-(methylamino)pyrazolo[1,5-a]pyrimidine-3-carboxamide]: below 0.1 µM.
With `CNc1cc(-c2cn([C@@H]3COC[C@H]3OC)c3ccccc23)nc2c(C(=O)NC3CC[C@@H]3OC)cnn12` (stereo partly shown) [Compound I-744], the IC50 is below 0.1 µM.
As for `CNc1cc(-c2cnc3n([C@H]4COC[C@@H]4O)cccc2-3)nc2c(C(=O)N[C@@H]3CC[C@H]3OC)cnn12` [Compound I-878], the IC50 was below 0.1 µM.
In the case of `CNc1cc(Nc2cccn([C@H]3CC[C@@H]3OC)c2=O)nc2c(C(=O)N[C@H]3CC[C@H]3O)cnn12` [Compound I-240], the IC50 was below 0.1 µM.
Same read-out and setting: as for `CNc1cc(-c2cnc3n(CCCN4CCOCC4)cccc2-3)nc2c(C(=O)N[C@H]3CC[C@@H]3OC)cnn12` [Compound I-990], the figure is below 0.1 µM; as for `CO[C@H]1CC[C@@H]1NC(=O)c1cnn2c(N)cc(-c3cnc4n([C@@H]5COC[C@H]5OC)cccc3-4)nc12` [Compound I-1010], 0.1 to 0.5 µM.
The same measure, in the same setting: the same measure for `CNc1cc(Nc2cccn([C@@H]3C[C@H]3F)c2=O)nc2c(C(=O)N[C@@H]3C[C@H]3OC)cnn12` [Compound I-135]: below 0.1 µM; for `CNc1cc(Nc2cccn([C@@H]3CCC[C@](C)(OC)C3)c2=O)nc2c(C(=O)NC3CC3)cnn12` [Compound I-124]: below 0.1 µM; for `CNc1cc(Nc2cccn([C@H]3C[C@@H](OC)C3)c2=O)nc2c(C(=O)NC3CCC3(F)F)cnn12` (stereo partly shown) [Compound I-295]: below 0.1 µM.
On the same count and under the same terms, as for `CNc1cc(Nc2cccn(C3COC3)c2=O)nc2c(C(=O)N[C@@H]3CCC3(F)F)cnn12` [Compound I-282], the figure is below 0.1 µM; as for `CNc1cc(-c2cn([C@H]3CCOC[C@@H]3F)c3ncccc23)nc2c(C(=O)NC3CC[C@@H]3OC)cnn12` (stereo partly shown) [Compound I-651], below 0.1 µM; as for `CNc1cc(-c2cn(C3CCOCC3)c3ncccc23)nc2c(C(=O)N[C@H]3CCC3(F)F)cnn12` [Compound I-699], below 0.1 µM.
`CNc1cc(Nc2cccn(C3CCOCC3)c2=O)nc2c(C(=O)NC3CCC3(F)F)cnn12` (stereo not shown) [Compound I-309] had an IC50 below 0.1 µM.
`CNc1cc(-c2cn([C@@H]3CCOC[C@@H]3OC)c3ncccc23)nc2c(C(=O)NC3CCC3(F)F)cnn12` (stereo partly shown) [Compound I-702] returned an IC50 below 0.1 µM.
Regarding `CNc1cc(-c2cn([C@@H]3CN(C)C[C@H]3F)c3ncccc23)nc2c(C(=O)NC3CC[C@@H]3OC)cnn12` (stereo partly shown) [Compound I-642], the IC50 was below 0.1 µM.
As for `CNc1cc(Nc2cccn([C@@H]3CCC[C@@H](OC)C3)c2=O)nc2c(C(=O)N[C@H]3CC[C@@H]3F)cnn12` [Compound I-228], the IC50 was below 0.1 µM.
The compound `CNc1cc(Nc2cccn([C@@H]3CCC[C@@H]3O)c2=O)nc2c(C(=O)NC3CC[C@@H]3F)cnn12` (stereo partly shown) [Compound I-179] came in with an IC50 below 0.1 µM.
On the same count and under the same terms, the same measure for `CNc1cc(-c2cn([C@H]3COC[C@@H]3OC)c3ncccc23)nc2c(C(=O)N[C@H]3CC[C@@H]3OC)cnn12` [Compound I-634]: below 0.1 µM.
The same measure, in the same setting: as for `CNc1cc(Nc2cccn([C@H]3CCCOC3)c2=O)nc2c(C(=O)NC3CC[C@@H]3F)cnn12` (stereo partly shown) [Compound I-197], the figure is below 0.1 µM.
As for `CNc1cc(-c2cn([C@@H]3CCOC[C@@H]3OC)c3ncccc23)nc2c(C(=O)N[C@H]3CC[C@@H]3OC)cnn12` [Compound I-669], the IC50 was below 0.1 µM.
The compound `CNc1cc(-c2cnc3n([C@H]4CCOC4)cccc2-3)nc2c(C(=O)N[C@H]3CC[C@@H]3OC)cnn12` [Compound I-1002] displayed an IC50 below 0.1 µM.
As for `CNc1cc(Nc2cccn(-c3ccc(C)nc3)c2=O)nc2c(C(=O)N[C@H]3CCC3(F)F)cnn12` [Compound I-325], the IC50 is below 0.1 µM.
The same measure, in the same setting: the same measure for `CNc1cc(-c2cn([C@@H]3COC[C@H]3O)c3ncccc23)nc2c(C(=O)N[C@@H]3CC[C@H]3OC)cnn12` [Compound I-629]: below 0.1 µM; for `CNc1cc(-c2cn([C@H]3CN(C)C[C@@H]3F)c3ncccc23)nc2c(C(=O)N[C@H]3CC[C@@H]3OC)cnn12` [Compound I-640]: below 0.1 µM; for `CNc1cc(-c2cnc3n([C@@H]4COC[C@H]4O)cccc2-3)nc2c(C(=O)N[C@H]3CCC3(F)F)cnn12` [Compound I-902]: below 0.1 µM.
Same read-out and setting: as for `CNc1cc(-c2cn(C3CCCC3)c3ncccc23)nc2c(C(=O)N[C@H]3CCC3(F)F)cnn12` [Compound I-685], the figure is below 0.1 µM; as for `CNc1cc(Nc2cccn(C3CCOCC3)c2=O)nc2c(C(=O)NC3CC[C@@H]3F)cnn12` (stereo partly shown) [Compound I-188], below 0.1 µM.
The same measure, in the same setting: the same measure for `CNc1cc(-c2cn([C@H]3CN(C)C[C@@H]3OC)c3ncccc23)nc2c(C(=O)N[C@H]3CC[C@@H]3OC)cnn12` [Compound I-649]: below 0.1 µM; for `CNc1cc(-c2cn(C(C)C)c3nnccc23)nc2c(C(=O)NC3CC[C@@H]3OC)cnn12` (stereo partly shown) [Compound I-993]: below 0.1 µM.
In turn, `CNc1cc(Nc2cccn([C@H]3CC[C@H](OC)CC3)c2=O)nc2c(C(=O)N[C@@H]3CC[C@@]3(C)OC)cnn12` [Compound I-428] came in with an IC50 below 0.1 µM.
The same measure, in the same setting: as for `CNc1cc(Nc2cccn([C@@H]3CCC[C@H](C#N)C3)c2=O)nc2c(C(=O)NC3CCC3(F)F)cnn12` (stereo partly shown) [Compound I-327], the figure is below 0.1 µM.
On the same count and under the same terms, the same measure for `CNc1cc(-c2cn([C@@H]3CCOC[C@@H]3OC)c3ncccc23)nc2c(C(=O)N[C@H]3CC[C@@H]3F)cnn12` [Compound I-798]: below 0.1 µM.
The compound `CNc1cc(Nc2cccn([C@H]3C[C@H](F)C3)c2=O)nc2c(C(=O)NC3CCC3(F)F)cnn12` (stereo partly shown) [Compound I-283] came in with an IC50 below 0.1 µM.
The same measure, in the same setting: as for `CNc1cc(Nc2cccn(-c3ccc(C)nc3)c2=O)nc2c(C(=O)NC3CCC3(F)F)cnn12` (stereo not shown) [Compound I-324], the figure is below 0.1 µM.

The assay is the same for the next values; noted with them: 0.5 h, 1.7 ng/mL IL-12 for 30 minutes.
Take `CNc1cc(Nc2cccn([C@@H]3CCC[C@H](C#N)C3)c2=O)nc2c(C(=O)NC3CC[C@@H]3OC)cnn12` (stereo partly drawn) [Compound I-115, 5-((1-((1R,3S)-3-Cyanocyclohexyl)-2-oxo-1,2-dihydropyridin-3-yl)amino)-N-((trans-1,2)-2-methoxycyclobutyl)-7-(methylamino)pyrazolo[1,5-a]pyrimidine-3-carboxamide]: the IC50 is below 0.1 µM.
Consider `CNc1cc(-c2cn([C@H]3C[C@@H](OC)C3)c3ncccc23)nc2c(C(=O)NC3CC[C@@H]3OC)cnn12` (stereo partly drawn) [Compound I-925, N-(2-methoxycyclobutyl)-5-(1-((1s,3S)-3-methoxycyclobutyl)-1H-pyrrolo[2,3-b]pyridin-3-yl)-7-(methylamino)pyrazolo[1,5-a]pyrimidine-3-carboxamide], for which the IC50 was below 0.1 µM.
`CNc1cc(-c2cn([C@@H]3CC(=O)N(C4CCOCC4)C3)c3ncccc23)nc2c(C(=O)NC3CC[C@@H]3OC)cnn12` (stereo partly drawn) [Compound I-1026, N-(2-methoxycyclobutyl)-7-(methylamino)-5-(1-((R)-5-oxo-1-(tetrahydro-2H-pyran-4-yl)pyrrolidin-3-yl)-1H-pyrrolo[2,3-b]pyridin-3-yl)pyrazolo[1,5-a]pyrimidine-3-carboxamide] had an IC50 of 0.1 to 0.5 µM.
Still for that read-out and setting: as for `CNc1cc(-c2cn([C@H]3C[C@@H](COC)C3)c3ncccc23)nc2c(C(=O)NC3CC[C@@H]3OC)cnn12` (stereo partly drawn) [Compound I-932, N-(2-methoxycyclobutyl)-5-(1-((1s,3R)-3-(methoxymethyl)cyclobutyl)-1H-pyrrolo[2,3-b]pyridin-3-yl)-7-(methylamino)pyrazolo[1,5-a]pyrimidine-3-carboxamide], the figure is below 0.1 µM; as for `CNc1cc(-c2cn([C@H]3COC[C@H]3F)c3ncccc23)nc2c(C(=O)NC3CC[C@@H]3OC)cnn12` (stereo partly drawn) [Compound I-624, 5-(1-((3S,4S)-4-Fluorotetrahydrofuran-3-yl)-1H-pyrrolo[2,3-b]pyridin-3-yl)-N-((trans-1,2)-2-methoxycyclobutyl)-7-(methylamino)pyrazolo[1,5-a]pyrimidine-3-carboxamide], below 0.1 µM.
